Measured values as given in patent US9073858B2, “Methods of targeted drug development” (priority 2010, dated 2015).
Read-outs that look alike come from different tables or passages of the source.

How the values were obtained:
EGFR = molecular target: T1, EGFR (Homo sapiens, UniProt P00533); experiment: EGFR in-cell Western (ICW) screening protocol; assay type: cell-based; set-up: unit not given here; conditions: for ICW Screen: initial screen
T1 construct: endogenous in cells; host or cells: A431 cells (ATCC CRL-1555)
T1 sequence (P00533 25-1210): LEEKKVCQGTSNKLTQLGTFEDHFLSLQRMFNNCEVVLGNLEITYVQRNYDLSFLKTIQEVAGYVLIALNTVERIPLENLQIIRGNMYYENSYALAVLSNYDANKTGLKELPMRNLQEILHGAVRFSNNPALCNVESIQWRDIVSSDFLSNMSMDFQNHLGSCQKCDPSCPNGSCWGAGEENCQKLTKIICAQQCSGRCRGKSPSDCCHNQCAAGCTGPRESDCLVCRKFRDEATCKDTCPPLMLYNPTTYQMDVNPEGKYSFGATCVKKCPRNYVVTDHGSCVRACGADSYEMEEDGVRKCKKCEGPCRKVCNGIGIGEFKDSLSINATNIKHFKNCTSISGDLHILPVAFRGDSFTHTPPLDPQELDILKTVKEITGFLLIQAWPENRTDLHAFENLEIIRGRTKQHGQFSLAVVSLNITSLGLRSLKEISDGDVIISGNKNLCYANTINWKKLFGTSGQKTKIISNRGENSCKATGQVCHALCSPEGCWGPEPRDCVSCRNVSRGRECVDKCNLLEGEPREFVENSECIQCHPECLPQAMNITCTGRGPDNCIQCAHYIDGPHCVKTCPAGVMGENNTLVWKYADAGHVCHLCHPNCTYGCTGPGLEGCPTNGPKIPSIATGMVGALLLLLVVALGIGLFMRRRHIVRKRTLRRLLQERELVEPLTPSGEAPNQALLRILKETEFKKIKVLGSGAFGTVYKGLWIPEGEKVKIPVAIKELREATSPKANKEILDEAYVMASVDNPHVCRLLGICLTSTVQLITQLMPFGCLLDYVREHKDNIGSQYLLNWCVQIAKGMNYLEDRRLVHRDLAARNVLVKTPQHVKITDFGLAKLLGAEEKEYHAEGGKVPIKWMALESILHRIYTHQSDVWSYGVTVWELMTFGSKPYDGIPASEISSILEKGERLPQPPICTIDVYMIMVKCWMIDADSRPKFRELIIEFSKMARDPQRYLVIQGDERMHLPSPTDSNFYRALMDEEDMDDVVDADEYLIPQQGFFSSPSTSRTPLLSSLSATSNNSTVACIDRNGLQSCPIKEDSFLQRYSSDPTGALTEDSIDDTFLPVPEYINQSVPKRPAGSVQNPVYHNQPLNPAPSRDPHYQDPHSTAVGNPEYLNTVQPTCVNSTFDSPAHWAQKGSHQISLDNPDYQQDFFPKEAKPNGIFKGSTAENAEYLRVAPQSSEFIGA
In short: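 Serum-starved cells treated with compound 4 h at 37 °C, then stimulated with EGF (20 or 0 ng/ml solution added) in its continued presence. In-cell Western on fixed cells: phospho-EGFR (800 channel) normalised to total EGFR (700 channel), % inhibition calculated against EGF-stimulated and unstimulated no-compound wells.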

[1] = test system: epithelial carcinoma A431 cell line; experiment: MTT Cell Proliferation Assay, A431 cell line; assay type: cell-based; conditions: for MTT-72 h A431/MDBK (ratio) / MTT (10 Point follow-up) ratio: value in brackets; for MTT-72 h A431/MDBK (ratio): numerically MDBK value over A431 value; for IC50: Homo sapiens; for MTT (10 Point follow-up) ratio: numerically MDBK over A431; for MTT-72 h % Max: maximal effect printed after the ratio
In short: (§1)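 Cells plated overnight, then exposed 3 days at 37 °C, 5% CO2 to compound in growth medium with 0.5% FBS and 0.5% DMSO final (0.5% DMSO as control).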

MDBK line = experiment: MTT Cell Proliferation Assay, MDBK line; assay type: cell-based, bovine; conditions: Bos taurus, MDBK
In short: as §1

[2] = A-431, 72 h, 72 h, first value of A431/MDBK pair, read-out: MTT-72 h A431
[3] = 72 h, second value of A431/MDBK pair, read-out: MTT-72 h MDBK
[4] = A-431, 10 point follow-up, first value of pair, read-out: MTT (10 Point follow-up) A431
[5] = 10 point follow-up, second value of pair, read-out: MTT (10 Point follow-up) MDBK

SMILES: Oc1cc2cccnc2cc1C(Nc1ccccn1)c1cccs1 (stereo not shown) [compound 10938]
- ICW Screen (EGFR): 40.36
- ICW Re-Test (EGFR): 24.99
- MTT-72 h A431/MDBK (ratio) ([1]; 72 h): 0.88
- IC50 [1, 2]: 25.3 µM
- IC50 (MDBK line; [3]): 22.1 µM

SMILES: Cc1ccnc(NC(c2ccccn2)c2ccc3cccnc3c2O)c1 (stereo not shown) [compound 10939]
- ICW Screen (EGFR): 32.68
- ICW Re-Test (EGFR): 33.81
- MTT-72 h A431/MDBK (ratio) ([1]; 72 h): 1.20
- IC50 [1, 2]: 5.67 µM
- IC50 (MDBK line; [3]): 6.78 µM

SMILES: COc1ccc(C(NC(=O)C2CCCCC2)c2cc([N+](=O)[O-])c3cccnc3c2O)cc1OC (stereo not shown) [compound 10940]
- ICW Screen (EGFR): 38.28
- ICW Re-Test (EGFR): 72.45
- MTT (10 Point follow-up) ratio [1]: 1.77
- MTT-72 h % Max ([1]; 72 h): 57%
- MTT-72 h A431/MDBK (ratio) ([1]; 72 h): 1.21
- IC50 [1, 4]: 0.336 µM
- IC50 [1, 2]: 13.6 µM
- IC50 (MDBK line; [5]): 0.594 µM
- IC50 (MDBK line; [3]): 16.6 µM

SMILES: CCOc1cc(C(NC(=O)C(C)(C)C)c2cc([N+](=O)[O-])c3cccnc3c2O)ccc1O (stereo not shown) [compound 10941]
- ICW Screen (EGFR): 27.61
- ICW Re-Test (EGFR): 67.81
- MTT (10 Point follow-up) ratio [1]: 1.56
- MTT-72 h A431/MDBK (ratio) ([1]; 72 h): 1.02
- IC50 [1, 4]: 1.12 µM
- IC50 [1, 2]: 5.92 µM
- IC50 (MDBK line; [5]): 1.75 µM
- IC50 (MDBK line; [3]): 6.05 µM

SMILES: Oc1c(C(Nc2cccnc2)c2ccc(C(F)(F)F)cc2)ccc2cccnc12 (stereo not shown) [compound 10942]
- ICW Screen (EGFR): 56.15
- ICW Re-Test (EGFR): 95.43
- MTT-72 h A431/MDBK (ratio) ([1]; 72 h): 1.09
- IC50 [1, 2]: 33.3 µM
- IC50 (MDBK line; [3]): 36.2 µM

SMILES: COc1ccc(Cl)cc1C(Nc1ccccn1)c1cc(Cl)c2cccnc2c1O (stereo not shown) [compound 10943]
- ICW Screen (EGFR): 44.28
- ICW Re-Test (EGFR): 68.79
- MTT (10 Point follow-up) ratio [1]: 1.50
- MTT-72 h A431/MDBK (ratio) ([1]; 72 h): 1.60
- IC50 [1, 4]: 1.25 µM
- IC50 [1, 2]: 1.31 µM
- IC50 (MDBK line; [5]): 1.88 µM
- IC50 (MDBK line; [3]): 2.1 µM

SMILES: Cc1ccc(C)c(C(Nc2cccnc2)c2cc(Cl)c3cccnc3c2O)c1 (stereo not shown) [compound 10944]
- ICW Screen (EGFR): 68.22
- ICW Re-Test (EGFR): 67.75
- IC50 [1, 4]: 1.86 µM
- IC50 [1, 2]: 2.03 µM
- IC50 (MDBK line; [5]): 2.73 µM
- IC50 (MDBK line; [3]): 2.96 µM

SMILES: CCOc1ccc(C(Nc2cccnc2)c2cc(Cl)c3cccnc3c2O)cc1 (stereo not shown) [compound 10945]
- ICW Screen (EGFR): 82.22
- ICW Re-Test (EGFR): 81.41
- MTT (10 Point follow-up) ratio [1]: 0.76
- MTT-72 h A431/MDBK (ratio) ([1]; 72 h): 0.67
- IC50 [1, 2]: 2.79 µM
- IC50 (MDBK line; [3]): 1.87 µM

SMILES: O=[N+]([O-])c1cccc(C(Nc2cccnc2)c2cc(Cl)c3cccnc3c2O)c1 (stereo not shown) [compound 10947]
- ICW Screen (EGFR): 42.78
- ICW Re-Test (EGFR): 42.98
- MTT-72 h A431/MDBK (ratio) ([1]; 72 h): 0.52
- IC50 [1, 2]: 5.15 µM
- IC50 (MDBK line; [3]): 2.66 µM

SMILES: Cc1cccc(NC(c2ccccn2)c2ccc3ccc(C)nc3c2O)n1 (stereo not shown) [compound 10948]
- ICW Screen (EGFR): 44.24
- ICW Re-Test (EGFR): 30.99
- MTT-72 h A431/MDBK (ratio) ([1]; 72 h): 1.34
- IC50 [1, 2]: 8.87 µM
- IC50 (MDBK line; [3]): 11.9 µM

SMILES: CCCC(=O)NC(c1ccc(OC)c(OC)c1)c1cc(Cl)c2cccnc2c1O (stereo not shown) [compound 10949]
- ICW Screen (EGFR): 26.99
- MTT-72 h A431/MDBK (ratio) ([1]; 72 h): 1.03
- IC50 [1, 2]: 5.63 µM
- IC50 (MDBK line; [3]): 5.79 µM

SMILES: CC(C)C(=O)NC(c1cccs1)c1cc([N+](=O)[O-])c2cccnc2c1O (stereo not shown) [compound 10950]
- ICW Screen (EGFR): 33.87
- ICW Re-Test (EGFR): 99.56
- MTT (10 Point follow-up) ratio [1]: 1.63
- MTT-72 h A431/MDBK (ratio) ([1]; 72 h): 1.70
- IC50 [1, 4]: 0.54 µM
- IC50 [1, 2]: 0.56 µM
- IC50 (MDBK line; [5]): 0.878 µM
- IC50 (MDBK line; [3]): 0.95 µM

SMILES: CCOc1cc(C(NC(C)=O)c2cc([N+](=O)[O-])c3cccnc3c2O)ccc1O (stereo not shown) [compound 10951]
- ICW Screen (EGFR): 38.95
- ICW Re-Test (EGFR): 31.33
- MTT-72 h A431/MDBK (ratio) ([1]; 72 h): 0.97
- IC50 [1, 2]: 5.58 µM
- IC50 (MDBK line; [3]): 5.44 µM

SMILES: Cc1cccc(NC(c2ccc(C)s2)c2ccc3ccc(C)nc3c2O)n1 (stereo not shown) [compound 10952]
- ICW Screen (EGFR): 49.39
- ICW Re-Test (EGFR): 43.94
- MTT-72 h A431/MDBK (ratio) ([1]; 72 h): 0.74
- IC50 [1, 2]: 10.5 µM
- IC50 (MDBK line; [3]): 7.77 µM

SMILES: CCOc1ccc(C(Nc2ccccn2)c2cc(Cl)c3cccnc3c2O)cc1 (stereo not shown) [compound 10953]
- ICW Screen (EGFR): 30.86
- ICW Re-Test (EGFR): 41.04
- MTT-72 h A431/MDBK (ratio) ([1]; 72 h): 1.03
- IC50 [1, 2]: 5.42 µM
- IC50 (MDBK line; [3]): 5.56 µM

SMILES: Oc1c(C(Nc2ccccn2)c2ccccn2)cc(Cl)c2cccnc12 (stereo not shown) [compound 10954]
- ICW Screen (EGFR): 31.09
- MTT (10 Point follow-up) ratio [1]: 1.26
- MTT-72 h A431/MDBK (ratio) ([1]; 72 h): 1.33
- IC50 [1, 4]: 1.62 µM
- IC50 [1, 2]: 1.72 µM
- IC50 (MDBK line; [5]): 2.17 µM
- IC50 (MDBK line; [3]): 2.29 µM

SMILES: Oc1c(C(Nc2ccccn2)c2cccnc2)cc(Cl)c2cccnc12 (stereo not shown) [compound 10955]
- ICW Screen (EGFR): 37.33
- ICW Re-Test (EGFR): 53.58
- MTT-72 h A431/MDBK (ratio) ([1]; 72 h): 0.97
- IC50 [1, 2]: 5.5 µM
- IC50 (MDBK line; [3]): 5.36 µM

SMILES: Oc1c(C(Nc2ccccn2)c2ccsc2)ccc2cccnc12 (stereo not shown) [compound 10957]
- ICW Screen (EGFR): 49.8
- ICW Re-Test (EGFR): 39.03
- MTT-72 h A431/MDBK (ratio) ([1]; 72 h): 0.80
- IC50 [1, 2]: 17.5 µM
- IC50 (MDBK line; [3]): 14.1 µM

SMILES: Cc1ccc2ccc(C(Nc3ccccn3)c3sccc3C)c(O)c2n1 (stereo not shown) [compound 10958]
- ICW Screen (EGFR): 60.73
- ICW Re-Test (EGFR): 70.92
- MTT-72 h A431/MDBK (ratio) ([1]; 72 h): 0.65
- IC50 [1, 2]: 14.8 µM
- IC50 (MDBK line; [3]): 9.67 µM

SMILES: CCCC(=O)NC(c1ccc(O)c(OCC)c1)c1cc([N+](=O)[O-])c2cccnc2c1O (stereo not shown) [compound 10959]
- ICW Screen (EGFR): 42.18
- ICW Re-Test (EGFR): 87.34
- MTT (10 Point follow-up) ratio [1]: 2.16
- MTT-72 h A431/MDBK (ratio) ([1]; 72 h): 2.47
- IC50 [1, 4]: 0.96 µM
- IC50 [1, 2]: 0.98 µM
- IC50 (MDBK line; [5]): 2.07 µM
- IC50 (MDBK line; [3]): 2.43 µM

SMILES: CCC(=O)NC(c1cccs1)c1cc([N+](=O)[O-])c2cccnc2c1O (stereo not shown) [compound 10960]
- ICW Screen (EGFR): 32.5
- ICW Re-Test (EGFR): 91.3
- MTT (10 Point follow-up) ratio [1]: 1.49
- MTT-72 h A431/MDBK (ratio) ([1]; 72 h): 1.52
- IC50 [1, 4]: 0.648 µM
- IC50 [1, 2]: 0.67 µM
- IC50 (MDBK line; [5]): 0.967 µM
- IC50 (MDBK line; [3]): 1.02 µM

SMILES: Cc1ccc2ccc(C(Nc3ccccn3)c3ccc(C)s3)c(O)c2n1 (stereo not shown) [compound 10961]
- ICW Screen (EGFR): 94.69
- ICW Re-Test (EGFR): 71.58
- MTT-72 h % Max ([1]; 72 h): 50%
- MTT-72 h A431/MDBK (ratio) ([1]; 72 h): 1.34
- IC50 [1, 2]: 32.4 µM
- IC50 (MDBK line; [3]): 43.5 µM

SMILES: CCN(CC)c1ccc(C(Nc2ccccn2)c2ccc3cccnc3c2O)cc1 (stereo not shown) [compound 10965]
- ICW Screen (EGFR): 74.54
- ICW Re-Test (EGFR): 92.26
- MTT-72 h A431/MDBK (ratio) ([1]; 72 h): 1.00
- IC50 [1, 2]: 3.83 µM
- IC50 (MDBK line; [3]): 3.83 µM

SMILES: Cc1ccc2ccc(C(Nc3ccccn3)c3cccnc3)c(O)c2n1 (stereo not shown) [compound 10967]
- ICW Screen (EGFR): 25.98
- ICW Re-Test (EGFR): 15.92
- MTT-72 h A431/MDBK (ratio) ([1]; 72 h): 0.67
- IC50 [1, 2]: 46 µM
- IC50 (MDBK line; [3]): 31 µM

SMILES: Cc1ccnc(NC(c2ccncc2)c2ccc3cccnc3c2O)c1 (stereo not shown) [compound 10968]
- ICW Screen (EGFR): 27
- MTT-72 h A431/MDBK (ratio) ([1]; 72 h): 0.71
- IC50 [1, 2]: 11.1 µM
- IC50 (MDBK line; [3]): 7.84 µM

SMILES: COc1ccc(C(NC(=O)c2cccnc2)c2cc(Cl)c3cccnc3c2O)cc1OC (stereo not shown) [compound 10969]
- ICW Screen (EGFR): 30.17
- ICW Re-Test (EGFR): 73.15
- MTT (10 Point follow-up) ratio [1]: 1.02
- IC50 [1, 4]: 0.51 µM
- IC50 (MDBK line; [5]): 0.52 µM

SMILES: Cc1cccc(NC(c2ccncc2)c2ccc3cccnc3c2O)n1 (stereo not shown) [compound 10974]
- ICW Screen (EGFR): 50.44
- ICW Re-Test (EGFR): 44.13
- MTT-72 h A431/MDBK (ratio) ([1]; 72 h): 1.14
- IC50 [1, 2]: 4.19 µM
- IC50 (MDBK line; [3]): 4.77 µM
